Consider 2 compounds from publication PMC7139824, “Molecular Mechanisms of PARP-1 Inhibitor 7-Methylguanine” (International Journal of Molecular Sciences, 2020).

Experiment [1] deals with T1, poly(ADP-ribose) polymerase 1 (PARP-1) (Homo sapiens, UniProt P09874).
T1 construct: gene PARP1
Briefly: real-time fluorescence anisotropy activity assay, purified PARP-1 with DNA duplex; competitive kinetics vs NAD+. It is filed as biochemical.

Experiment [2] addresses T1, poly(ADP-ribose) polymerase 1 (PARP-1). Briefly: fluorescence anisotropy kinetics, reaction rate vs NAD+ concentration ([…]). It is filed as biochemical.

T1 sequence (P09874 2-1014): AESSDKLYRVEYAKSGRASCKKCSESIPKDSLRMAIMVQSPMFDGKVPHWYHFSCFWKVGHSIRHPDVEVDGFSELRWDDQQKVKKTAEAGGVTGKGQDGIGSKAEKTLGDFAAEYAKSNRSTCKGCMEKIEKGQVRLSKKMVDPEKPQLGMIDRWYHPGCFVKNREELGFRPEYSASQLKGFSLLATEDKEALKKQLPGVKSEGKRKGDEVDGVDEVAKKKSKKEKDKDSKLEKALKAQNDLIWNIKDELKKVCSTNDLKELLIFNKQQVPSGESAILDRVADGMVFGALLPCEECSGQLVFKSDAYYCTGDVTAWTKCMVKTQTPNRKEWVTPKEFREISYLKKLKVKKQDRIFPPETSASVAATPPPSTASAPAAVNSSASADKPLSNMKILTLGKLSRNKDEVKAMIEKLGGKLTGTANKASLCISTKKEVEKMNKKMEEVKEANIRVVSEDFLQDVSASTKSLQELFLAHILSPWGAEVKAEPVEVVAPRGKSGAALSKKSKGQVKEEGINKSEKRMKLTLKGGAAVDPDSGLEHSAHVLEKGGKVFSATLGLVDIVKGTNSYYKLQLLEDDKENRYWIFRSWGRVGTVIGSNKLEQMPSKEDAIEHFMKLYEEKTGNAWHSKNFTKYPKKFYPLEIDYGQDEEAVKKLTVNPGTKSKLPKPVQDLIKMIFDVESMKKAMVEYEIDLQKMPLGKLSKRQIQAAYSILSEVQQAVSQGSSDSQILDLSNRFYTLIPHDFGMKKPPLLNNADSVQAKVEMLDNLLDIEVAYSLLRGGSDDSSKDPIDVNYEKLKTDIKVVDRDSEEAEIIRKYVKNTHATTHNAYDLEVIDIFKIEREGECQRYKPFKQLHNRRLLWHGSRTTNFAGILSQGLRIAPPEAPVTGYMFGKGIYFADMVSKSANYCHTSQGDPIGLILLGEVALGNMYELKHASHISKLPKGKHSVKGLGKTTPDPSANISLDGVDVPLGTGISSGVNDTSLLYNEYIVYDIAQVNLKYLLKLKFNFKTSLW

In turn, `Cn1cnc2nc(N)[nH]c(=O)c21` [7-MG, 7-methylguanine] gave an inhibition constant (Ki) in experiment [1] of 61 ± 9 µM.

Take `NC(=O)c1ccc[n+]([C@@H]2O[C@H](COP(=O)([O-])OP(=O)(O)OC[C@H]3O[C@@H](n4cnc5c(N)ncnc54)[C@H](O)[C@@H]3O)[C@@H](O)[C@H]2O)c1` [NAD^+]: in experiment [2], the “fluorescence anisotropy kinetics, reaction rate vs NAD+ concentration (0-2500 μM)” value is listed as “Dependence of the PARP-1-catalyzed reaction rate on the NAD^+ concentration at different concentrations of 7-MG”.
